Structures are written as SMILES.

The subject of data set [1] is human neutrophils. Briefly: O2•− (superoxide) production in fMLF-activated human neutrophils. Conditions: Neutrophil; fMLF (0.1 μM)/CB-activated human neutrophils; read-out: IC50, suppression of superoxide production. In kind it is cell-based. The method, then: (§1) Human neutrophils were obtained in lipopolysaccharide-free conditions by means of dextran sedimentation and Ficoll centrifugation.
O2^•− production was determined based on the SOD-inhibitable reduction of ferricytochrome c. Briefly, neutrophils (6×10^5/mL) were treated with LS-PH at 37° C. at various concentrations (0.03 to 3 μM) for 5 min after being supplementing with 0.5 mg/mL ferricytochrome c and 1 mM Ca^2+. Cells were activated with formyl-L-methionyl-L-leucyl-L-phenylalanine (fMLF, 0.1 μM) for 10 min in the pre-process of cytochalasin B (CB, 1 μg/mL) for 3 min. Changes in absorbance with the reduction of ferricytochrome c at 550 nm were continuously monitored in a double-beam, six-cell positioner spectrophotometer with constant stirring (Hitachi U-3010, Tokyo, Japan). Calculations were based on the differences in the reactions with and without SOD (100 U ml^−1) divided by the extinction coefficient for the reduction of ferricytochrome c (ε=21.1 mM^−1/10 mm).

For data set [2], the system named is human neutrophils. Description: Elastase release from fMLF-activated human neutrophils. In kind it is cell-based. Conditions: Neutrophil; fMLF (0.1 μM)/CB-activated human neutrophils; read-out: IC50, suppression of elastase release. The method, then:
as §1
MeO-Suc-Ala-Ala-Pro-Val-p-nitroanilide was employed as the elastase substrate for the determination of elastase release. Briefly, after supplementation with Methoxysuccinyl-Ala-Ala-Pro-Val-p-nitroanilide (Ms-Ala-Ala-Pro-Val-pNA) (100 μM), neutrophils (6×10^5/mL) were equilibrated at 37° C. for 2 min and incubated with LS-PH at various concentrations for 5 min. Cells were activated with fMLF (0.1 μM) for 10 min in the pre-process of cytochalasin B (CB, 0.5 μg/mL) for 3 min, and changes in absorbance at 405 nm were continuously monitored to evaluate elastase release. Results are expressed as the percentage of elastase release in the drug-free control group, DMSO.

Data set [3] has as its system human neutrophils. Briefly: Intracellular ROS formation in fMLF-activated human neutrophils. It is filed as cell-based. The method, then: as §1
After supplementation with dihydrorhodamine 123 (2 μM), neutrophils (1×10^6/mL) were equilibrated at 37° C. for 12 min and incubated with LS-PH at various concentrations for 5 min. Cells were activated with fMLF (0.1 μM) for 5 min in the pre-process of cytochalasin B (CB, 0.5 μg/mL) for 3 min. Intracellular ROS was determined by use of flow cytometer.

The test system of data set [4] is human neutrophils. In kind it is cell-based. The conditions noted are these: 0.03 to 3 μM. Here is the method: Cytotoxicity of LS-PH towards neutrophils was evaluated by measuring the level of lactate dehydrogenase (LDH) using a commercial kit (Promega). LDH is a cytosolic enzyme that is released only when cell membrane is disrupted (i.e., cell death), thus may be used as an indicator of cell viability. The kit measures a color change at (λmax=450 nm) when LDH reduces NAD to NADH. Cytotoxicity was expressed as the percent LDH activity obtained in cell-free medium compared to the total LDH activity. Total LDH activity was determined by lysing cells with 0.1% Triton X-100 for 30 min at 37° C.

The target in the next data set is T1, FPR1 (Homo sapiens, UniProt P21462).
T1 construct: endogenous in cells; host or cells: neutrophils
T1 sequence (P21462 1-350): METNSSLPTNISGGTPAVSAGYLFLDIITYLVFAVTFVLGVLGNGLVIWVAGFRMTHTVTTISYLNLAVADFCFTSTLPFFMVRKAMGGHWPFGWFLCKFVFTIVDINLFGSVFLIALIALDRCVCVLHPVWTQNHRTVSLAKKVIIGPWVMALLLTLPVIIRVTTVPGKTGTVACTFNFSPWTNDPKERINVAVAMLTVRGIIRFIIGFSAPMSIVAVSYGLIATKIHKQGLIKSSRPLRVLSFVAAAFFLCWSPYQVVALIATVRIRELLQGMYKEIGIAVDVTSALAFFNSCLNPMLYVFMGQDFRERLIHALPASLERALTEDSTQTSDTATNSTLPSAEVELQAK
Briefly: FPR1 binding assay (FNLFNYK, flow cytometry). Conditions: neutrophils, FNLFNYK 4 nM, 4° C.; read-out: IC50, suppression of binding of FPR1-specific ligand FNLFNYK. The method, then:
Neutrophils (2×10^6 cells/ml) were incubated with various concentrations of compound LS-PH (0.03 to 3 μM) or fMLF (10 μM) at 4° C. for 5 min, and labeled with FPR1-specific ligand […] (4 nM) for 30 min. Then, the binding was determined by use of flow cytometry.
(In flow cytometry, cells or beads pass a laser one at a time.)

`C=C(C)C1CCC2(C(=O)O)CC[C@]3(C)[C@H](CC[C@@H]4[C@@](C)(CCC(=O)O)[C@H](C(=C)C)CC[C@]43C)C12` (some centres unmarked) [LS-PH, (E) 3,4-Seco-4(23), 20(29)-lupadiene-3,28-dioic acid]: the IC50 (as a rule, the concentration at which inhibition is half-maximal) with human neutrophils [1] is about 260 nM; with human neutrophils [2], about 710 nM; at FPR1 it was about 1720 nM. Further, in the data set with human neutrophils [3], the “suppression of fMLF-induced intracellular ROS formation” value is given as “suppress fMLF-induced intracellular ROS formation”. Further, in the data set with human neutrophils [4], the “cytotoxicity (LDH release)” value was “did not exhibit detectable cytotoxicity”.

Source of the values: patent US9895329B1, “Formyl peptide receptor 1 antagonists and uses thereof” (Chang Gung University, priority 2016, dated 2018).
